Measurements as given in ChEMBL document CHEMBL3272043, “Isoxazole anthelmintics” (1977).
Active and inactive are the calls of the source. The rule behind the calls is not given here.

How the values were obtained:
[1] = tested on: Nippostrongylus brasiliensis; assay: Anthelmintic activity against Nippostrongylus brasiliensisin in parasitized po dosed albino rat assessed as dose required to 75 % clearance relative to untreated control; format: functional; conditions: read-out: MED
[2] = tested on: Nippostrongylus brasiliensis; assay: Anthelmintic activity against Nippostrongylus brasiliensisin in parasitized albino rat assessed as dose required to 75 % clearance at 500 mg/kg, po relative to untreated control; format: functional, organism-based; parameters: dose 500 mg/kg

Row | SMILES | minimal effective dose [1] [mg/kg] | Activity [2]
1 | Cc1ccc(-c2cc(Cl)no2)cc1 | 500 | –
2 | O=C(Nc1cc(-c2ccccc2)on1)C(F)(F)F | – | inactive
3 | Clc1ccc(-c2ccno2)cc1 | – | inactive
4 | C=CCCCOc1cc(-c2ccccc2)no1 | 125 | –
5 | Clc1ccc(-c2cc(Br)no2)cc1 | 250 | –
6 | CCSc1cc(-c2ccccc2)no1 | 125 | –
7 | c1ccc(-c2ccon2)cc1 | – | inactive
8 | Ic1cc(-c2ccccc2)on1 | 250 | –
9 | Nc1cc(-c2ccccc2)on1 | – | inactive
10 | COC(=O)Nc1cc(-c2ccccc2)on1 | – | inactive
11 | Clc1cc(-c2ccccc2)no1 | 16 | –
12 | Brc1cc(-c2ccccc2)no1 | 16 | –
13 | O=C(CC[N+](=O)[O-])c1cccs1 | – | inactive
14 | Nc1noc(-c2ccccc2)c1Cl | – | inactive
15 | C[S+]([O-])c1cc(-c2ccccc2)no1 (stereo not drawn) | – | inactive
16 | c1ccc(CSc2cc(-c3ccccc3)no2)cc1 | – | inactive
17 | Clc1noc(-c2ccccc2)c1Cl | 31 | –
18 | O=C(CC[N+](=O)[O-])c1ccc(Cl)cc1 | – | inactive
19 | Cc1ccc(C(=O)CC[N+](=O)[O-])cc1 | – | inactive
20 | COc1onc(-c2ccccc2)c1Cl | – | inactive
21 | Brc1cc(-c2ccccc2)on1 | 31 | –
22 | Clc1onc(-c2ccccc2)c1Cl | – | inactive
23 | C=CCc1c(-c2ccccc2)noc1Cl | – | inactive
24 | FC(F)(F)c1cc(-c2ccccc2)on1 | – | inactive

Row | SMILES | minimal effective dose [1] [mg/kg] | Activity [2]
25 | O=C(CC[N+](=O)[O-])c1ccccc1 | – | inactive
26 | O=C(Nc1noc(-c2ccccc2)c1Cl)C(F)(F)F | – | inactive
27 | CNC(=O)Nc1cc(-c2ccccc2)on1 | – | inactive
28 | CCOc1cc(-c2ccccc2)no1 | 31 | –
29 | CN(C)c1cc(-c2ccccc2)no1 | 125 | –
30 | CCSCCOc1cc(-c2ccccc2)no1 | – | inactive
31 | O=[N+]([O-])c1ccc(-c2cc(Cl)no2)cc1 | – | inactive
32 | CSc1onc(-c2ccccc2)c1Cl | – | inactive
33 | FC(F)(F)c1cc(-c2ccccc2)no1 | – | inactive
34 | Clc1cc(-c2cccs2)on1 | 250 | –
35 | Clc1cc(-c2ccccc2)on1 | 31 | –
36 | Clc1cc(-c2ccc(Cl)c(Cl)c2)on1 | 250 | –
37 | COc1cc(-c2ccccc2)no1 | 31 | –
38 | Nc1noc(-c2ccccc2)c1Br | – | inactive
39 | O=[N+]([O-])c1cc(-c2cc(Cl)no2)ccc1Cl | – | inactive
40 | CS(=O)(=O)c1cc(-c2ccccc2)no1 | – | inactive
41 | CSc1cc(-c2ccccc2)no1 | 31 | –
42 | Clc1ccc(-c2cc(Cl)no2)cc1 | 62 | –
43 | Clc1ccc(-c2cc(Cl)no2)c(Cl)c1 | 62 | –
44 | CS(=O)(=O)Oc1cc(-c2ccccc2)on1 | – | inactive
45 | Oc1cc(-c2ccc(Cl)cc2)on1 | – | inactive
46 | O=C(CC[N+](=O)[O-])c1ccc(Cl)cc1Cl | – | inactive
47 | O=C(CC[N+](=O)[O-])c1ccc(Cl)c(Cl)c1 | – | inactive
48 | c1ccc(-c2cc(N3CCOCC3)on2)cc1 | 500 | –
